Source: patent publication EP1656183B1, “TREATMENT OF MALE SEXUAL DYSFUNCTION” (Pfizer Limited, priority 2003, dated 2005)
Read-outs that look alike come from different tables or passages of the source.

What was measured:
human V1A receptor = biological target: T1, human V1A receptor (Homo sapiens, UniProt P37288); assay: Ligand binding assay, [3H]-AVP binding to CHO-hV1A membranes
T1 construct: expressed in transfected cells; host or cells: CHO (CHO-hV1A cell line provided by Marc Thibonnier, Case Western Reserve University)
T1 sequence (P37288 whole entry): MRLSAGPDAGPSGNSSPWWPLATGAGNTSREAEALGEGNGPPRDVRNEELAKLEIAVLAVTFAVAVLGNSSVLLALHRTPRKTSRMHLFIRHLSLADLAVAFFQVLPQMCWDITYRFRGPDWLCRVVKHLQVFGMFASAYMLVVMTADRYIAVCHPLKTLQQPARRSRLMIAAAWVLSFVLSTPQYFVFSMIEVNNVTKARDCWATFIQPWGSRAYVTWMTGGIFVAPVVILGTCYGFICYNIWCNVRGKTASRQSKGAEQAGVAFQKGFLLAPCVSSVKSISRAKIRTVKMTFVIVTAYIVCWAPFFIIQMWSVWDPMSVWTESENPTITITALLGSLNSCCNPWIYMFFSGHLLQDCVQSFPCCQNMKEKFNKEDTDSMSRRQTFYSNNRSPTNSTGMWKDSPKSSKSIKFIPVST
Experimental: Receptor binding assays were performed on cellular membranes prepared from CHO cells stably expressing the human V1A receptor, (CHO-hV1A). […] CHO-hV1A cells were routinely maintained at 37°C In humidified atmosphere with 5% CO2 in DMEM/Hams F12 nutrient mix supplemented with 10 % fetal bovine serum, 2 mM L-glutamine, 15 mM HEPES and 400 µg/ml G418. For bulk production of cell pellets, adherent CHO-hV1A cells were grown to confluency of 90-100% in 850 cm^2 roller bottles containing a medium of DMEM/Hams F12 Nutrient Mix supplemented with 10 % fetal bovine serum, 2 mM L-glutamine and 15 mM HEPES. Confluent CHO-hV1A cells were washed with phosphate-buffered saline (PBS), harvested into ice cold PBS and centrifuged at 1,000 rpm. Cell pellets were stored at -80°C until use. Cell pellets were thawed on ice and homogenised in membrane preparation buffer consisting of 50 mM Tris-HCI, pH 7.4, 5 mM MgCl2 and supplemented with a protease inhibitor cocktail, (Roche). The cell homogenate was centrifuged at 1000 rpm, 10 min, 4°C and the supernatant was removed and stored on ice. The remaining pellet was homogenised and centrifuged as before. The supernatants were pooled and centrifuged at 25,000 x g for 30 min at 4°C. The pellet was resuspended in freezing buffer consisting of 50 mM Tris-HCI, pH 7.4, 5 mM MgCl2 and 20 % glycerol and stored in small aliquots at -80°C until use. Protein concentration was determined using Bradford reagent and BSA as a standard.
Protein linearity followed by saturation binding studies were performed on each new batch of membrane. A membrane concentration was chosen that gave specific binding on the linear portion of the curve. […]
Compounds were tested for their effects on [^3H]-AVP binding to CHO-hV1A membranes, (^3H-AVP; specific activity 65.5 Ci/mmol; NEN Life Sciences). […] The plates were sealed and counted on a TopCount Microplate Scintillation Counter (Packard Instruments). Non-specific binding (NSB) was determined using 1 µM unlabelled d(CH2)5Tyr(Me)AVP ([β-mercapto-β,β-cyclopentamethylene-propionyl,0-Me-Tyr^2,Arg^8]-vasopressin) (βMCPVP), (Sigma). The radioligand binding data was analysed using a four parameter logistic equation with the min forced to 0%. […] Specific binding was calculated by subtracting the mean NSB cpm from the mean Total cpm. For test compounds the amount of ligand bound to the receptor was expressed as % bound = (sample cpm - mean NSB cpm)/specific binding cpm x100. […] The Inhibitory dissociation constant (Ki) was calculated using the Cheng-Prusoff equation: Ki=IC50/(1+[L]/Kd) where [L] is the concentration of ligand present in the well and Kd is the dissociation constant of the radioligand obtained from Scatchard plot analysis.

anaesthetised rats = assay: p-chloroamphetamine (PCA)-induced ejaculation and penile erection in anaesthetised rats; format: in vivo, Male Sprague Dawley rats; details: for delay of p-chloroamphetamine (PCA)-induced ejaculation: vasopressin selective doses, plasma concentration of 9-31 nM; for Penile Cups / Penile Flares: % of PCA-induced erections
Experimental: In order to study penile erection and ejaculation the method used was based on the methodology taught in Yonezawa et al (2000) Life Sciences 67, 3031-3039. For ease of reference, this methodology is described below:
Male Sprague Dawley rats, weighing 350-450 g, are used. Prior to the experiments the animals are housed in groups (2 rats per cage) under controlled 12 h light-dark cycle (lights on at 07:00), constant temperature (23±1°C) and humidity (55±5%). They have free access to standard food pellets and water.
Rats are anesthestised with sodium pentobarbitone (50mg/kg, i.p.) and are placed in the supine position. The penis is extruded from its sheath and gently held by a wooden applicator positioned at the base of the penis. The test compounds are administered by intravenous infusion and p-chloroamphetamine (PCA) (5-10mg/kg) is administered i.p. immediately before the sheath retraction and the penile responses, including penile erection, redding and expansion of the penile body, glans erection, engorgement and slight flaring of the glans and cup, glans erection with Intense flaring of the glans, are recorded. Latencies from PCA administration to the initial penile response and ejaculation is also measured In seconds. […]

human Oxytocin receptor = biological target: T2, human Oxytocin receptor (Homo sapiens, UniProt P30559); assay: Oxytocin receptor binding assay (125I-OVT, SPA)
T2 construct: expressed in transfected cells; host or cells: CHO
T2 sequence (P30559 1-389): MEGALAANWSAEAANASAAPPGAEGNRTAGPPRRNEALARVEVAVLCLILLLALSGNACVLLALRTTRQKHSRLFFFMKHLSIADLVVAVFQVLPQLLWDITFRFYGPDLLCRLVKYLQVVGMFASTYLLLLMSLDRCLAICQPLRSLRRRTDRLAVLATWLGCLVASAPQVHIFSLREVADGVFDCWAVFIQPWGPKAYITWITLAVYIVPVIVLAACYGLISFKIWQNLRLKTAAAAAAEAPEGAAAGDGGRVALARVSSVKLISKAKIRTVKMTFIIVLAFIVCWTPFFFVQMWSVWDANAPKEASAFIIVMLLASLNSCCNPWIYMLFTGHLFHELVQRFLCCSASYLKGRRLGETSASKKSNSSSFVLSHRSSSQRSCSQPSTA
Experimental: As an example for a selectivity assay, an oxytocin receptor binding assay is described below.
CHO-cells engineered to express the human Oxytocin receptor are maintained, and membrane preparations from such cells are prepared according to standard techniques (see e.g. Example 2). They are diluted to 1 mg/ml protein concentration in assay buffer (50 mM Tris-HCl, pH7.8; 10 mM Mg Cl2; 0.25% BSA). SPA beads are resuspended at 50 mg/ml in assay buffer. From these concentrations, beads are pre-coupled with membranes by incubating 30 µg of protein per mg of bead on a top-to-tail shaker for 2 hours at 4 °C. The bead/membranes are then centrifuged at 2000 rpm for 10 mins and the pellet is resuspended at 3 mg/ml.
All manipulations of the ^125I-OVT (NEN, NEX254) are carried out using tips that have been silanised using SigmaCote. All bottles and tubes are also silanised. […] A 5 µl sample is then counted in duplicate using liquid scintillation counting (protocol 61 on Wallac Counter) and the concentration of the ligand is calculated. […] Using the measured concentration, the ^125I-OVT is diluted to 0.3 nM in assay buffer.
20 µl of the bead/membrane preparation is added to the prepared Optiplates using the Multi-drop, after the desired dilutions of test compounds are added to the wells. […] Following a 4 hour incubation at room temperature, the plates are counted using the TopCount NXT for 30s/well.

conscious rats = assay: Copulatory behaviour in conscious rats (ejaculatory latency); format: in vivo; details: 0.05mgkg^-1 sc
Experimental: For all the sexual behavour tests, the male rats were placed in an observation arena (50-60 cm diameter), starting 5 hours into the dark cycle and observed under red ilumination. Three to four minutes after placing the male in the arena, a receptive female (ovariectomised, oestradiol benzoate / progesterone injection 48 hour before behavioural study) was Introduced into the arena and the following parameters noted: • i) ejaculatory latency (EJL; time taken from addition of receptive female into the arena to ejaculation); • ii) copulatory efficiency (CE; ejaculatory latency/ the number of intromissions to ejaculation, i.e. the number of seconds between intromissions); • iii) intromission frequency (IF; the number of intromissions to ejaculation); • iv) mount frequency (MF; the number of mounts to ejaculation); • v) post ejaculatory interval (PEI; the time taken from ejaculation to the commencement of copulatory behaviour).
Rodent copulatory behaviour is characterised by a series of mounts, with and without vaginal insertion (50-80% of mounts result in intromission [vaginal penetration]) and ejaculation occurs after 6 to 12 intromissions. Each intromission lasts a matter of seconds - it is not possible to quantify intromission length i.e. intravaginal latency. The effect of L-371257 was assessed on a number of copulatory parameters (see above). […]

[1] = Plasma concentration in the copulatory behaviour study; format: in vivo; details: 0.05mgkg^-1 sc, rats
[2] = plasma conc 30.9nM, listed as compound 1

Row | Structure (SMILES) | Ki (human V1A receptor) | selective towards vasopressin V1a receptors as compared with oxytocin receptors (human V1A receptor) | time taken for the rats to achieve erection (anaesthetised rats; anaesthetised rats, PCA-induced) | Ejaculation was delayed (anaesthetised rats; anaesthetised rats, free plasma concentrations 30.9nM, near maximal effect) | delay of p-chloroamphetamine (PCA)-induced ejaculation (anaesthetised rats; anaesthetised rats) | delay of p-chloroamphetamine (PCA)-induced ejaculation (anaesthetised rats; anaesthetised rats, listed as compound 1) | ejaculation and penile erection (anaesthetised rats; at both plasma conc 11.4nM and 30.9nM) | Penile Cups (anaesthetised rats; plasma conc 11.4nM) | Penile Flares (anaesthetised rats; plasma conc 11.4nM) | Penile Cups (anaesthetised rats; plasma conc 30.9nM) | Penile Flares (anaesthetised rats; plasma conc 30.9nM) | Penile Cups (anaesthetised rats; [2]) | Penile Flares (anaesthetised rats; [2]) | Ki (human Oxytocin receptor; read-out: oxytocin receptors (OT; Ki OT)) | other effects on copulatory behaviour (conscious rats) | Increased ejaculatory latency (conscious rats; P<0.05 versus vehicle) | selective towards oxytocin receptors as compared with vasopressin V1a receptors (human V1A receptor; as printed: OT vs V1a) | Ki (human V1A receptor; read-out: vasopressin V1a receptors (V1a; Ki V1a)) | Plasma conc [1] | Ki (human Oxytocin receptor; read-out: oxytocin receptors (OT))
1 | COC1CCN(Cc2nnc(C3CCN(c4ccccn4)CC3)n2Cc2ccccc2)CC1 [Compound 1, 4-[4-Benzyl-5-(4-methoxy-piperldin-1-ylmethyl)-4H-[1,2,4]triazol-3-yl]-3,4,5,6-tetrahydro-2H-[1,2']bipyridinyl] | 50 nM | more than 60 fold | not significantly affected | 100% | delays ejaculation | significantly delayed | * At both of these concentrations Compound 1 delayed ejaculation without affecting penile erection. | 31.6% | 81.5% | 57.0% | 83.6% | 57% | 84% | 3000 nM |  |  |  |  |  | 
2 | COc1cc(OC2CCN(C(C)=O)CC2)ccc1C(=O)N1CCC(N2C(=O)OCc3ccccc32)CC1 [Compound L-371257, reference compound] |  |  |  |  |  |  |  |  |  |  |  |  |  |  | no other significant effects | 67% | more than 5 fold | 3.7 nM | L-371257 0.05mgkg^-1 sc Plasma conc ∼ 30nM | 19 nM
